Source: ChEMBL document CHEMBL1153322, “Identification of novel and orally active spiroindoline NPY Y5 receptor antagonists” (Bioorg Med Chem Lett, 2009)
Activity calls are given as the source filed them. No cut-off for these calls is given here.

Legend:
[1] = target: T1, Neuropeptide Y receptor type 5 (Homo sapiens, UniProt Q15761); assay: Displacement of [125I]PYY from human recombinant Y5 receptor expressed in mouse LMtk cells; type: cell-based
T1 sequence (Q15761 whole entry): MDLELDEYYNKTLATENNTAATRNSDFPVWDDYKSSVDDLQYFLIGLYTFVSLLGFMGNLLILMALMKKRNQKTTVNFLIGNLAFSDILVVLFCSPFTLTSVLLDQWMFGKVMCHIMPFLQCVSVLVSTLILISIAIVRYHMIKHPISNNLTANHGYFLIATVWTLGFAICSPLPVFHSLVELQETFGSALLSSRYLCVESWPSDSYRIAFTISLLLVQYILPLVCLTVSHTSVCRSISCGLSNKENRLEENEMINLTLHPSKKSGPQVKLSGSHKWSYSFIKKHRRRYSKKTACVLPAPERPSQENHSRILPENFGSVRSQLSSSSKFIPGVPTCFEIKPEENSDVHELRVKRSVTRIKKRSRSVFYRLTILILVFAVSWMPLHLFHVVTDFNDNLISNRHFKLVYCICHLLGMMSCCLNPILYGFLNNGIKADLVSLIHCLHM

Rattus norvegicus [2] = assay: Inhibition of bovine-pancreatic polypeptide-induced food intake in po dosed Sprague-Dawley rat assessed as minimum effective dose measured for 2 hrs; type: functional; settings: read-out: MED
Rattus norvegicus [3] = assay: Inhibition of bovine-pancreatic polypeptide-induced food intake in Sprague-Dawley rat at 30 mg/kg, po measured for 2 hrs; type: functional, organism-based; set-up: dose 30 mg/kg
[4] = Ratio of drug level in brain to plasma of rat at 3 mg/kg, iv after 10 mins; type: ADME, organism-based; set-up: dose 3 mg/kg, route intravenous; settings: brain and plasma, read-out: BPR
[5] = Oral bioavailability in rat at 10 mg/kg; type: ADME, organism-based; settings: in vivo
[6] = Ratio of drug level in brain to plasma of rat at 3 mg/kg, iv after 60 mins; type: ADME, organism-based; set-up: dose 3 mg/kg, route intravenous; settings: brain and plasma, read-out: BPR
Rattus norvegicus [7] = assay: Toxicity in Sprague-Dawley rat assessed as sedation at 30 mg/kg, po; type: organism-based; set-up: dose 30 mg/kg, route oral; settings: in vivo
[8] = Solubility at pH 7; type: physicochemical; settings: buffer
[9] = Lipophilicity, log D at pH 7.4; type: physicochemical; settings: buffer
[10] = Solubility at pH 1; type: physicochemical; settings: buffer
[11] = Solubility at pH 5; type: physicochemical; settings: buffer
[12] = Solubility at pH 3; type: physicochemical; settings: buffer

## CC(=O)c1ccc(NC(=O)N2CCC3(CC2)CN(S(N)(=O)=O)c2ccccc23)cc1
[1]
  IC50: 2 nM

## CCCCc1ccc(NC(=O)N2CCC3(CC2)CN(S(C)(=O)=O)c2ccccc23)cc1
[1]
  IC50: 1.2 nM

## CS(=O)(=O)N1CC2(CCN(C(=O)Nc3cccc(-c4ccccc4)c3)CC2)c2ccccc21
[1]
  IC50: 1.3 nM

## NS(=O)(=O)N1CC2(CCN(C(=O)Nc3ccc(Cl)c(Cl)c3)CC2)c2ccccc21
[1]
  IC50: 4 nM

## CS(=O)(=O)N1CC2(CCN(C(=O)Nc3ccc(-c4ccncc4)cc3)CC2)c2ccccc21
Rattus norvegicus [2]
  minimal effective dose: 10 mg/kg
Rattus norvegicus [3]
  Activity: Active
[4]
  Kp at 10 min: 0.12
[5]
  bioavailability: 53%
[6]
  Kp at 1 h: 0.12
Rattus norvegicus [7]
  Activity: Non-toxic
[1]
  IC50: 4.1 nM

## CS(=O)(=O)N1CC2(CCN(C(=O)Cc3ccc(-c4ccccc4)cc3)CC2)c2ccccc21
[1]
  IC50: 180 nM

## CS(=O)(=O)N1CC2(CCN(C(=O)Nc3cccc(-c4ccncc4)c3)CC2)c2ccccc21
[1]
  IC50: 23 nM

## CS(=O)(=O)N1CC2(CCN(C(=O)Nc3ccc(-c4ccccc4)cn3)CC2)c2ccccc21
[5]
  bioavailability: 0%
[1]
  IC50: 0.96 nM

## NS(=O)(=O)N1CC2(CCN(C(=O)Nc3ccc(Oc4ccccc4)cc3)CC2)c2ccccc21
[1]
  IC50: 3 nM

## CS(=O)(=O)N1C[C@]2(CC[C@H](C(=O)Nc3ccc(-c4ccccc4)cc3)CC2)c2ccccc21
[1]
  IC50: 1.5 nM

## CS(=O)(=O)Nc1ccccc1N1CCN(C(=O)Nc2cc(-c3ccc(Cl)cc3)n[nH]2)CC1
[1]
  IC50: 1.4 nM

## CS(=O)(=O)N1CC2(CCN(C(=O)Nc3ccccc3-c3ccccc3)CC2)c2ccccc21
[1]
  IC50: 430 nM

## CS(=O)(=O)N1CC2(CCN(C(=O)Nc3ccc(-c4cccnc4)cc3)CC2)c2ccccc21
[4]
  Kp at 10 min: 0.13
[5]
  bioavailability: 47%
[6]
  Kp at 1 h: 0.11
[1]
  IC50: 2.1 nM

## CS(=O)(=O)N1C[C@]2(CC[C@@H](C(=O)Nc3ccc(-c4ccccc4)cc3)CC2)c2ccccc21
[1]
  IC50: 200 nM

## NS(=O)(=O)N1CC2(CCN(C(=O)Nc3ccccc3Cl)CC2)c2ccccc21
[1]
  IC50: 5 nM

## CS(=O)(=O)N1CC2(CCN(C(=O)Nc3ccc(-c4ccccc4)nn3)CC2)c2ccccc21
[4]
  Kp at 10 min: 0.42
[5]
  bioavailability: 20%
[6]
  Kp at 1 h: 0.32
[1]
  IC50: 3 nM

## CS(=O)(=O)N1CC2(CCN(C(=O)Nc3ccc(-c4ccccc4)cc3)CC2)c2ccccc21
[8]
  solubility: < 0.01 µg/mL
[4]
  Kp at 10 min: 1.3
[9]
  logD: > 4
[5]
  bioavailability: 0%
[10]
  solubility: < 0.01 µg/mL
[11]
  solubility: < 0.01 µg/mL
[6]
  Kp at 1 h: 1.93
[1]
  IC50: 0.85 nM
[12]
  solubility: < 0.01 µg/mL

## CS(=O)(=O)N1CC2(CCN(C(=O)Nc3ccc(-c4ccccc4)nc3)CC2)c2ccccc21
[5]
  bioavailability: 0%
[1]
  IC50: 0.82 nM

## CS(=O)(=O)N1CC2(CCN(C(=O)Nc3ccnc(-c4ccccc4)n3)CC2)c2ccccc21
[1]
  IC50: 7.5 nM

## O=C(Nc1cc(-c2ccc(Cl)cc2)n[nH]1)C1Cc2ccccc2C1
[1]
  IC50: 59 nM

## CS(=O)(=O)N1CC2(CCN(C(=O)Nc3nccc(-c4ccccc4)n3)CC2)c2ccccc21
[1]
  IC50: 9.8 nM

## CS(=O)(=O)N1CC2(CCN(C(=O)Nc3ccc(-c4ccccn4)cc3)CC2)c2ccccc21
[4]
  Kp at 10 min: 0.23
[5]
  bioavailability: 12%
[6]
  Kp at 1 h: 0.24
[1]
  IC50: 3 nM

## CS(=O)(=O)N1CC2(CCN(C(=O)Nc3cnc(-c4ccccc4)nc3)CC2)c2ccccc21
[5]
  bioavailability: 0%
[1]
  IC50: 0.86 nM

## CS(=O)(=O)N1CC2(CCN(C(=O)Nc3ccc(Cl)c(Cl)c3)CC2)c2ccccc21
[1]
  IC50: 0.2 nM

## CS(=O)(=O)N1CC2(CCN(C(=O)Nc3cnc(-c4ccccc4)cn3)CC2)c2ccccc21
[5]
  bioavailability: 0%
[1]
  IC50: 0.97 nM

## CS(=O)(=O)N1CC2(CCN(C(=O)Nc3ncc(-c4ccccc4)cn3)CC2)c2ccccc21
[4]
  Kp at 10 min: 0.14
[5]
  bioavailability: 24%
[6]
  Kp at 1 h: 0.07
[1]
  IC50: 0.57 nM
